# Laboratory results reported in patent US20260152527A1, “NOVEL MELANOCORTIN ANALOGS” (priority 2022, published 2026).
# Like-named read-outs stand apart in the source and are kept apart here. Positions of bridges follow the written chain, without caps; N, C: chain ends. Non-standard residues stand in square brackets, D forms with d. Residues, ends and D or L forms follow the SMILES beside them. Triazole bridges read from a SMILES are 1,4-linked. *: point of attachment. Benzoyl(3,5-(OH)2) = O=C(c1cc(O)cc(O)c1)*; Lys(N3) = [N-]=[N+]=NCCCC[C@H](N)C(=O)O; dPhe(4-F) = N[C@H](Cc1ccc(F)cc1)C(=O)O; Nle = CCCC[C@H](N)C(=O)O; Pra = C#CC[C@H](N)C(=O)O
# Experiments:
# [1] = Thermodynamic solubility study in water; assay type: physicochemical; conditions: Table 8; read-out: Solubility
# Description: The study was conducted in water. Water was added into compound powder to make a 10 mg/mL solution. Sample tubes were shaken at the vibrator for 1 hour (1000 rpm) and then equilibrated overnight at room temperature. Samples were centrifuged at 12000 rpm for 10 min to precipitate undissolved particles. Supernatants were transferred from tubes to a new plate. An aliquot of the supernatant after centrifugation was taken from each well, then analyzed by LC-MS/MS. The concentration of the supernatants was quantified by a standard curve.
# [2] = rabbit
# Description: To evaluate the effects of the peptide formulations following topical administration and subconjunctival injection a study in rabbits was undertaken. Animals were acclimated to the study and, upon completion of the acclimation period, each animal was physically examined for determination of suitability for study participation. Animals determined to be in good health were randomized into study groups to achieve averaged mean body weight in each group. (N=24; 3 animals per study group) Animals will be uniquely identified by corresponding cage card number and ear tag.
# For topical ocular dosing the designated peptide formulations (35 L) were administered to the eye of each animal using a calibrated pipette. With the animal manually restrained, the upper eyelid of the eye was gently elevated to expose the cornea. Treatment was then be applied to the cornea without contacting the eye with the pipette tip. One topical drop was applied per eye for four days. Tissue collection (aqueous humor) occurred 30 minutes after last dose.
# A veterinary ophthalmologist performed complete ocular examinations using a slit lamp biomicroscope and indirect ophthalmoscope to evaluate ocular surface morphology and anterior and posterior segment inflammation on all animals prior to injection to serve as a baseline for enrollment into the study as well as on specific study days. Animals were not tranquilized for the examinations.
# At least 1.0 mL of whole blood was drawn from the marginal ear vein or cardiac puncture (terminal bleed only) into K2EDTA tubes for plasma collection. After collection, the tubes were gently mixed by inverting the tubes 5-8 times. Blood samples were stored on wet ice prior to plasma processing. The samples were centrifuged at 4° C. for 10 minutes at 2000 g in a swinging bucket refrigerated centrifuge. Within 20 minutes of the blood collection time, the clear plasma was transferred to prelabelled polypropylene tubes, snap frozen, and stored frozen at approximately −80° C.
# Following euthanasia, eyes were enucleated and marked at the 12:00 position. Aqueous humor was removed via a 27 or 30 gauge syringe following a 10-15 second rinse with PBS and blot with Kimwipe, and snap frozen by immersing in liquid nitrogen. The whole globe was then snap frozen in liquid nitrogen and stored at −80° C. to be held for potential dissection. All samples were placed into individual vials and weighed. The plasma and aqueous humor were collected.
# The peptides were evaluated for their ocular tolerability and pharmacokinetics following repeated (QID×4 days) topical instillation or a single subconjunctival injection in rabbits. The study examined penetration into the anterior chamber and concentrations in the plasma by measuring at a single time point.
# [3] = In vivo topical administration pharmacokinetics of K173, rabbit (aqueous humor, cornea); conditions: for level at 0.5 h / level at 1 h / level at 2 h / level at 4 h / level at 8 h / level at 24 h: aqueous humor, topical or ocular; for level at 0.5 h: 30 Min post-last dose; for level at 1 h: 1 hr post-last dose; for level at 2 h: 2 hr post-last dose; for level at 4 h: 4 hr post-last dose; for level at 8 h: 8 hr post-last dose; for level at 24 h: 24 hr post-last dose
# Description: Animals were not tranquilized for the examinations.
# The remaining ocular tissues were discarded. Ocular samples were stored −80° C.
# The rabbit efficacy model can be used to determine if QD or BID dosing is optimal for clinical utility.
# [4] = test system: corneal edema following Descemetorhexis without Endothethelial Keratoplasty (DWEK) surgery; assay type: in vivo; conditions: rabbit
# Description: To evaluate the efficacy of a peptide formulation in reducing corneal edema following Descemetorhexis without Endothethelial Keratoplasty (DWEK) surgery a study in rabbits was undertaken. […] A Table summarizing the parameters regarding the study is provided in FIGS. 5A-5B and a schematic exemplifying the timeline of the study is provided in FIG. 6.
# Treatment was administered once (QD) or twice daily (BID) with approximately 6-8 hours between each BID dose for 28 days.
# The rabbits were subjected to a surgical procedure prior to administering topical treatment. The animals received buprenorphine (0.01-0.05 mg/kg SC) and were sedated immediately prior to the procedure with ketamine/xylazine cocktail (20-50/4-10 mg/kg IM). Aseptic precautions were taken for the surgical procedure. […] Sterile eyewash was then used to irrigate the ocular surface of the left eye. […] The animal's corneal epithelium was marked with a circular ring (5 mm) to create a template for resection of the host tissue. […] Descemet's membrane was scored peripherally using a reverse Terry-Sinskey hook, and then Descemet's membrane was peeled from the overlying stroma. Descemet's membrane was removed using forceps. Viscoelastic was removed by Irrigation Aspiration (IA) using balanced salt saline (BSS). […]
# In addition, tonometry was performed by a veterinary ophthalmologist or a trained technician. Intraocular pressure (IOP) was measured in both eyes of all animals at days 2, 4, 8, 15, 22, and 29. […] Six consecutive measurements were obtained and the average IOP shown on the display was recorded. Three independent measurements were obtained and recorded for each eye.
# Pachymetry was also performed by a veterinary ophthalmologist or trained technician on days 2, 4, 8, 15, 22, and 29. Corneal thickness was measured in both eyes using an ultrasonic pachymeter. […]
# Optical coherence tomography (OS only) was also measured in the animals. […]
# human recombinant MC5R = biological target: T1, human recombinant MC5R (Homo sapiens, UniProt P33032); assay: Ca2+ signalling functional assay, MC5R stable cell line (CHO-K1/Ga15); assay type: cell-based
# T1 construct: host or cells: CHO-K1/Ga15
# Description: The Ca^2+ signalling functional assay was performed on a human recombinant MC5R stable cell line (CHO-K1/Ga15, GenScript). The cells were cultured at 37° C. and 5% C02 with culture medium (90% Ham's F-12K (Kaighn's)+10% FBS+400 μg/mL G418+100 μg/mL Hygromycin B). Cells were washed with PBS and then detached by incubation with 0.05% (w/v) Trypsin EDTA at 37° C. for 2 to 5 mins. Detached cells were suspended in Ham's F-12K (Kaighn's) (containing 10% FBS) and a 50 μL cell suspension is seeded into each well of a 384-well assay plate at a density of 15,000 cells/well. Cells were allowed to settle overnight at 37° C., 5% CO2. […] Then, 100 nL of compounds were transferred to the compound plate by the Echo machine. Thirty microliter assay buffer was added to the compounds plate and then shaken for 20-40 minutes. The plates were placed on the FLIPR and 15 μL of the compound was added to each well, then calcium flux signal was measured.
# human recombinant MC1R = biological target: T2, human recombinant MC1R (Homo sapiens, UniProt Q01726); assay: cyclic AMP (cAMP) functional assay, MC1R stable cell line (CHO-K1); assay type: cell-based;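 also: cells with test compound for 60 min at room temperature in buffer containing IBMX, then cAMP quantified by Eu-cAMP tracer and ULight anti-cAMP detection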
# T2 construct: host or cells: CHO-K1
# Description: The cyclic AMP (cAMP) functional assay was performed on a human recombinant MC1R stable cell line (CHO-K1, GenScript). The cells were cultured at 37° C. and 5% CO2 with culture medium (90% Ham's F-12K (Kaighn's)+10% FBS+400 μg/mL G418). […] Then, 100 nL of compounds were transferred to the assay plate by the Echo machine. Cells were washed with PBS and then detached by incubation with 0.05% (w/v) Trypsin EDTA at 37° C. for 2 to 5 mins. Cells were collected with stimulation buffer (1×HBSS with 5 mM HEPES+0.2 mM IBMX+0.1% BSA) and 10 ul of cells (the density of 2,500 cells/well) solution was transferred to assay plate, centrifuged at 600 rpm for 3 min and then incubated with compounds at room temperature for 60 min. After that, 5 μL 4×Eu-cAMP tracer solution and 5 μL 4×ULight™-anti-cAMP solution was added into the cells, centrifuged at 600 rpm for 3 min and incubated for 60 min. The cAMP signal was detected with Envision® Multimode Plate Reader (PerkinElmer).
# [5] = 5 mg/ml solution, 35 L per eye, Group 1 (single dose), topical 5 mg/ml, OD, Mean, read-out: K173 Concentrations (ng/mL) in Rabbit Aqueous Humor OD Sample, Mean
# [6] = 5 mg/ml solution, 35 L per eye, Group 1 (single dose), topical 5 mg/ml, OS, Mean, read-out: K173 Concentrations (ng/mL) in Rabbit Aqueous Humor OS Sample, Mean
# [7] = 5 mg/ml solution, 35 L per eye, Group 2 (4 doses), topical 5 mg/ml, OD, Mean, read-out: K173 Concentrations (ng/mL) in Rabbit Aqueous Humor OD Sample, Mean
# [8] = 5 mg/ml solution, 35 L per eye, Group 2 (4 doses), topical 5 mg/ml, OS, Mean, read-out: K173 Concentrations (ng/mL) in Rabbit Aqueous Humor OS Sample, Mean
# [9] = 5 mg/ml solution, 35 L per eye, Group 3 (8 BID doses), topical 5 mg/ml, OD, Mean, read-out: K173 Concentrations (ng/mL) in Rabbit Aqueous Humor OD Sample, Mean
# [10] = 5 mg/ml solution, 35 L per eye, Group 3 (8 BID doses), topical 5 mg/ml, OS, Mean, read-out: K173 Concentrations (ng/mL) in Rabbit Aqueous Humor OS Sample, Mean
# [11] = 5 mg/ml, Group 1 (single dose), topical 5 mg/ml, OD, Mean, read-out: K173 Concentrations (ng/mL) in Rabbit Aqueous Humor OD Sample, Mean
# [12] = 5 mg/ml, Group 1 (single dose), topical 5 mg/ml, OS, Mean, read-out: K173 Concentrations (ng/mL) in Rabbit Aqueous Humor OS Sample, Mean
# [13] = 5 mg/ml, Group 1 (single dose), topical 5 mg/ml, OS, individual animals, read-out: K173 Concentrations (ng/mL) in Rabbit Aqueous Humor OS Sample
# [14] = 5 mg/ml, Group 2 (4 doses), topical 5 mg/ml, OD, Mean, read-out: K173 Concentrations (ng/mL) in Rabbit Aqueous Humor OD Sample, Mean
# [15] = 5 mg/ml, Group 2 (4 doses), topical 5 mg/ml, OS, Mean, read-out: K173 Concentrations (ng/mL) in Rabbit Aqueous Humor OS Sample, Mean
# [16] = 5 mg/ml, Group 2 (4 doses), topical 5 mg/ml, OD, individual animals, read-out: K173 Concentrations (ng/mL) in Rabbit Aqueous Humor OD Sample
# [17] = 5 mg/ml, Group 3 (8 BID doses), topical 5 mg/ml, OD, Mean, read-out: K173 Concentrations (ng/mL) in Rabbit Aqueous Humor OD Sample, Mean
# [18] = 5 mg/ml, Group 3 (8 BID doses), topical 5 mg/ml, OS, Mean, read-out: K173 Concentrations (ng/mL) in Rabbit Aqueous Humor OS Sample, Mean
# T2 sequence (Q01726 whole entry): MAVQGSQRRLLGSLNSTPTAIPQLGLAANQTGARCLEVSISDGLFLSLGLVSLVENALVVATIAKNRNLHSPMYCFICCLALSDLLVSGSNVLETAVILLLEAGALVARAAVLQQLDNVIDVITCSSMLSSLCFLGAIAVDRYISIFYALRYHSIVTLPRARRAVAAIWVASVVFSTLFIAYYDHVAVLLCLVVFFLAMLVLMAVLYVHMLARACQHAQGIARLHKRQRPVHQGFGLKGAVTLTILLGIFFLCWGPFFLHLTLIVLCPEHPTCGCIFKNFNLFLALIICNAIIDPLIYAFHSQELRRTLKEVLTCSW
# T1 sequence (P33032 whole entry): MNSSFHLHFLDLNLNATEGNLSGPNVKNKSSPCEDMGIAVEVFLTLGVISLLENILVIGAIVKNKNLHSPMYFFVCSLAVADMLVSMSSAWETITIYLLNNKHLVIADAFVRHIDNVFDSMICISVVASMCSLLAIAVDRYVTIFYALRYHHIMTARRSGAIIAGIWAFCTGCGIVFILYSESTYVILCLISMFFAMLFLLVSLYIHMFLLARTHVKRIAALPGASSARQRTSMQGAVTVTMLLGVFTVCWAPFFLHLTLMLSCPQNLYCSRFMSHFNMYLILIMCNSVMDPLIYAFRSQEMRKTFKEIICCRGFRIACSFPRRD
smiles,measurement,setting,value
"CCCC[C@H](NC(=O)c1cc(O)cc(O)c1)C(=O)N[C@H]1CCCCn2cc(nn2)C[C@@H](C(N)=O)NC(=O)[C@H](Cc2c[nH]c3ccccc23)NC(=O)[C@H](CCCNC(=N)N)NC(=O)[C@@H](Cc2ccc(F)cc2)NC(=O)[C@H](Cc2c[nH]cn2)NC1=O [KR-072, HyBA-Nle-[Lys(N3)-His-Dphe(4-F)-Arg-Trp-Pra]-NH2] ({Benzoyl(3,5-(OH)2)}-[Nle][Lys(N3)]H[dPhe(4-F)]RW[Pra]-NH2; triazole 2-7)",solubility,[1],6470 µg/mL
same,Topical Ocular Permeability (nM ± SEM),[2],15.5 ± 2.6 nM
same,level at 0.5 h,[3]; [5],8.44 ng/mL
same,level at 0.5 h,[3]; [6],1.36 ng/mL
same,level at 1 h,[3]; [5],1.13 ng/mL
same,level at 1 h,[3]; [6],5.22 ng/mL
same,level at 0.5 h,[3]; [7],1.9 ng/mL
same,level at 0.5 h,[3]; [8],3.47 ng/mL
same,level at 1 h,[3]; [7],2.75 ng/mL
same,level at 1 h,[3]; [8],2.49 ng/mL
same,level at 2 h,[3]; [9],10.5 ng/mL
same,level at 2 h,[3]; [10],12.1 ng/mL
same,level at 4 h,[3]; [9],11.6 ng/mL
same,level at 4 h,[3]; [10],7.33 ng/mL
same,level at 8 h,[3]; [9],5.92 ng/mL
same,level at 8 h,[3]; [10],6.42 ng/mL
same,level at 24 h,[3]; [9],3.79 ng/mL
same,level at 24 h,[3]; [10],4.45 ng/mL
same,level at 2 h,[3]; [11],3.58 ng/mL
same,level at 2 h,[3]; [12],1.89 ng/mL
same,level at 4 h,[3]; [11],2.68 ng/mL
same,level at 4 h,"[3]; 5 mg/ml, Group 1 (single dose), topical 5 mg/ml, OD, individual animals, read-out: K173 Concentrations (ng/mL) in Rabbit Aqueous Humor OD Sample",2.94 ng/mL
same,level at 4 h,[3]; [12],3.35 ng/mL
same,level at 4 h,[3]; [13],3.56 ng/mL
same,level at 8 h,[3]; [11],5.77 ng/mL
same,level at 8 h,[3]; [12],4.2 ng/mL
same,level at 8 h,[3]; [13],3.34 ng/mL
same,level at 24 h,[3]; [11],3.22 ng/mL
same,level at 24 h,[3]; [12],2.46 ng/mL
same,level at 24 h,[3]; [13],2.34 ng/mL
same,level at 2 h,[3]; [14],5.76 ng/mL
same,level at 2 h,[3]; [15],7.84 ng/mL
same,level at 4 h,[3]; [14],4.61 ng/mL
same,level at 4 h,[3]; [15],3.86 ng/mL
same,level at 8 h,[3]; [14],10.9 ng/mL
same,level at 8 h,[3]; [16],11.3 ng/mL
same,level at 8 h,[3]; [15],14.8 ng/mL
same,level at 24 h,[3]; [14],1.98 ng/mL
same,level at 24 h,[3]; [16],2.34 ng/mL
same,level at 24 h,[3]; [15],2.33 ng/mL
same,level at 24 h,"[3]; 5 mg/ml, Group 2 (4 doses), topical 5 mg/ml, OS, individual animals, read-out: K173 Concentrations (ng/mL) in Rabbit Aqueous Humor OS Sample",2.3 ng/mL
same,level at 0.5 h,[3]; [17],10.3 ng/mL
same,level at 0.5 h,[3]; [18],8.11 ng/mL
same,level at 1 h,[3]; [17],5 ng/mL
same,level at 1 h,"[3]; 5 mg/ml, Group 3 (8 BID doses), topical 5 mg/ml, OD, individual animals, read-out: K173 Concentrations (ng/mL) in Rabbit Aqueous Humor OD Sample",5.13 ng/mL
same,level at 1 h,[3]; [18],6.56 ng/mL
same,level at 1 h,"[3]; 5 mg/ml, Group 3 (8 BID doses), topical 5 mg/ml, OS, individual animals, read-out: K173 Concentrations (ng/mL) in Rabbit Aqueous Humor OS Sample",7.48 ng/mL
same,Aqueous humor levels 24 hours after last dose,"[3]; topical 5 mg/ml, all dose groups",measurable levels were detected after 24 hours in all dose groups
same,ocular surface retention and Tmax,"[3]; topical, after a single dose",prolonged ocular surface retention and Tmax
same,corneal edema by stromal thickness measurements (OCT),"[4]; DWEK, topical 0.05, 0.1, 0.5 mg/mL QD vs vehicle",decrease corneal edema
same,wound healing / rate of wound closure (corneal flat mount analysis),[4]; topical 0.1 mg/mL,enhanced wound healing
same,efficacy on corneal stromal thickness by OCT,[4]; two lowest treatment options 0.05 mg/mL or 0.1 mg/mL,Statistically significant efficacy
same,EC50,human recombinant MC5R,78 nM
same,IC50,human recombinant MC5R; calcium flux functional assay,78 nM
same,EC50,human recombinant MC1R,0.0019 nM
same,IC50,human recombinant MC1R; cAMP functional assay,0.0019 nM
